{"source": "PubChem BioAssay AID2060600", "about": "(Molecular Pharmacology Branch, DTP, NCI, 2025);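 also: spheroids exposed to the agents for 7 days before readout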", "test_system": "996289-038-R-J1-PDC complex spheroid viability", "assay": "Anticancer human tumor 996289-038-R-J1-PDC patient-derived colon adenocarcinoma cell line growth inhibition [CLK]", "details": "for IC50: curve of first compound; for viability, T/C: stronger effect = lower value", "in_short": "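Multi-cell-type spheroids combined patient-derived tumor cells with HUVEC endothelial cells and human mesenchymal stem cells. Paired agents were dosed in half-log steps down from about clinical Cmax, or from 10 microM where Cmax was unknown.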", "key": {"[1]": {"details": "second compound 0.0316 µM, first compound 0.0316 µM"}, "[2]": {"details": "second compound 0.0316 µM, first compound 0.1 µM"}, "[3]": {"details": "second compound 0.0316 µM, first compound 0.316 µM"}, "[4]": {"details": "second compound 0.0316 µM, first compound 1 µM"}, "[5]": {"details": "second compound 0.0316 µM, first compound 3.16 µM"}, "[6]": {"details": "second compound 0.0316 µM, first compound 10 µM"}, "[7]": {"details": "second compound 0.1 µM, first compound 0.0316 µM"}, "[8]": {"details": "second compound 0.1 µM, first compound 0.1 µM"}, "[9]": {"details": "second compound 0.1 µM, first compound 0.316 µM"}, "[10]": {"details": "second compound 0.1 µM, first compound 1 µM"}, "[11]": {"details": "second compound 0.1 µM, first compound 3.16 µM"}, "[12]": {"details": "second compound 0.1 µM, first compound 10 µM"}, "[13]": {"details": "second compound 0.316 µM, first compound 0.0316 µM"}, "[14]": {"details": "second compound 0.316 µM, first compound 0.1 µM"}, "[15]": {"details": "second compound 0.316 µM, first compound 0.316 µM"}, "[16]": {"details": "second compound 0.316 µM, first compound 1 µM"}, "[17]": {"details": "second compound 0.316 µM, first compound 3.16 µM"}, "[18]": {"details": "second compound 0.316 µM, first compound 10 µM"}, "[19]": {"details": "second compound 1 µM, first compound 0.0316 µM"}, "[20]": {"details": "second compound 1 µM, first compound 0.1 µM"}, "[21]": {"details": "second compound 1 µM, first compound 0.316 µM"}, "[22]": {"details": "second compound 1 µM, first compound 1 µM"}, "[23]": {"details": "second compound 1 µM, first compound 3.16 µM"}, "[24]": {"details": "second compound 1 µM, first compound 10 µM"}, "[25]": {"details": "second compound 3.16 µM, first compound 0.0316 µM"}, "[26]": {"details": "second compound 3.16 µM, first compound 0.1 µM"}, "[27]": {"details": "second compound 3.16 µM, first compound 0.316 µM"}, "[28]": {"details": "second compound 3.16 µM, first compound 1 µM"}, "[29]": {"details": "second compound 3.16 µM, first compound 3.16 µM"}, "[30]": {"details": "second compound 3.16 µM, first compound 10 µM"}, "[31]": {"details": "second compound 10 µM, first compound 0.0316 µM"}, "[32]": {"details": "second compound 10 µM, first compound 0.1 µM"}, "[33]": {"details": "second compound 10 µM, first compound 0.316 µM"}, "[34]": {"details": "second compound 10 µM, first compound 1 µM"}, "[35]": {"details": "second compound 10 µM, first compound 3.16 µM"}, "[36]": {"details": "second compound 10 µM, first compound 10 µM"}}}
{"smiles": "CC1(C)CCC(CN2CCN(c3ccc(C(=O)NS(=O)(=O)c4ccc(NCC5CCOCC5)c([N+](=O)[O-])c4)c(Oc4cnc5[nH]ccc5c4)c3)CC2)=C(c2ccc(Cl)cc2)C1", "note": "+ CN1CCN(c2cc(C(=O)Nc3cc4cc(-c5cnn(C)c5)ccc4cn3)ccn2)CC1", "values": [{"measurement": "IC50", "setting": "second compound 0.0316 µM", "result": 8.46, "unit": "µM"}, {"measurement": "IC50", "setting": "second compound 0.1 µM", "result": 6.78, "unit": "µM"}, {"measurement": "IC50", "setting": "second compound 0.316 µM", "result": 5.35, "unit": "µM"}, {"measurement": "IC50", "setting": "second compound 1 µM", "result": "< 0.0316", "unit": "µM"}, {"measurement": "IC50", "setting": "second compound 3.16 µM", "result": "< 0.0316", "unit": "µM"}, {"measurement": "IC50", "setting": "second compound 10 µM", "result": "< 0.0316", "unit": "µM"}, {"measurement": "viability, T/C", "setting": "[1]", "result": 107, "unit": "%"}, {"measurement": "viability, T/C", "setting": "[2]", "result": 92.1, "unit": "%"}, {"measurement": "viability, T/C", "setting": "[3]", "result": 99.5, "unit": "%"}, {"measurement": "viability, T/C", "setting": "[4]", "result": 104, "unit": "%"}, {"measurement": "viability, T/C", "setting": "[5]", "result": 111, "unit": "%"}, {"measurement": "viability, T/C", "setting": "[6]", "result": 41, "unit": "%"}, {"measurement": "viability, T/C", "setting": "[7]", "result": 93.1, "unit": "%"}, {"measurement": "viability, T/C", "setting": "[8]", "result": 92.7, "unit": "%"}, {"measurement": "viability, T/C", "setting": "[9]", "result": 91.3, "unit": "%"}, {"measurement": "viability, T/C", "setting": "[10]", "result": 102, "unit": "%"}, {"measurement": "viability, T/C", "setting": "[11]", "result": 92.1, "unit": "%"}, {"measurement": "viability, T/C", "setting": "[12]", "result": 28.4, "unit": "%"}, {"measurement": "viability, T/C", "setting": "[13]", "result": 72.2, "unit": "%"}, {"measurement": "viability, T/C", "setting": "[14]", "result": 70.9, "unit": "%"}, {"measurement": "viability, T/C", "setting": "[15]", "result": 74.3, "unit": "%"}, {"measurement": "viability, T/C", "setting": "[16]", "result": 71.2, "unit": "%"}, {"measurement": "viability, T/C", "setting": "[17]", "result": 80.5, "unit": "%"}, {"measurement": "viability, T/C", "setting": "[18]", "result": 21.6, "unit": "%"}, {"measurement": "viability, T/C", "setting": "[19]", "result": 5.73, "unit": "%"}, {"measurement": "viability, T/C", "setting": "[20]", "result": 6.71, "unit": "%"}, {"measurement": "viability, T/C", "setting": "[21]", "result": 6.34, "unit": "%"}, {"measurement": "viability, T/C", "setting": "[22]", "result": 6.11, "unit": "%"}, {"measurement": "viability, T/C", "setting": "[23]", "result": 7.84, "unit": "%"}, {"measurement": "viability, T/C", "setting": "[24]", "result": 4.96, "unit": "%"}, {"measurement": "viability, T/C", "setting": "[25]", "result": 3.72, "unit": "%"}, {"measurement": "viability, T/C", "setting": "[26]", "result": 2.29, "unit": "%"}, {"measurement": "viability, T/C", "setting": "[27]", "result": 1.42, "unit": "%"}, {"measurement": "viability, T/C", "setting": "[28]", "result": 3.37, "unit": "%"}, {"measurement": "viability, T/C", "setting": "[29]", "result": 1.39, "unit": "%"}, {"measurement": "viability, T/C", "setting": "[30]", "result": 1.49, "unit": "%"}, {"measurement": "viability, T/C", "setting": "[31]", "result": 2.97, "unit": "%"}, {"measurement": "viability, T/C", "setting": "[32]", "result": 0.51, "unit": "%"}, {"measurement": "viability, T/C", "setting": "[33]", "result": 2.24, "unit": "%"}, {"measurement": "viability, T/C", "setting": "[34]", "result": 0.81, "unit": "%"}, {"measurement": "viability, T/C", "setting": "[35]", "result": 0.61, "unit": "%"}, {"measurement": "viability, T/C", "setting": "[36]", "result": 0.62, "unit": "%"}]}
{"smiles": "CC1COCCN1c1cc(C2(S(C)(=N)=O)CC2)nc(-c2ccnc3[nH]ccc23)n1", "note": "(centres undefined) + CN1CCN(c2cc(C(=O)Nc3cc4cc(-c5cnn(C)c5)ccc4cn3)ccn2)CC1", "values": [{"measurement": "IC50", "setting": "second compound 0.0316 µM", "result": "> 10", "unit": "µM"}, {"measurement": "IC50", "setting": "second compound 0.1 µM", "result": "> 10", "unit": "µM"}, {"measurement": "IC50", "setting": "second compound 0.316 µM", "result": "> 10", "unit": "µM"}, {"measurement": "IC50", "setting": "second compound 1 µM", "result": "< 0.0316", "unit": "µM"}, {"measurement": "IC50", "setting": "second compound 3.16 µM", "result": "< 0.0316", "unit": "µM"}, {"measurement": "IC50", "setting": "second compound 10 µM", "result": "< 0.0316", "unit": "µM"}, {"measurement": "viability, T/C", "setting": "[1]", "result": 103, "unit": "%"}, {"measurement": "viability, T/C", "setting": "[2]", "result": 104, "unit": "%"}, {"measurement": "viability, T/C", "setting": "[3]", "result": 98.1, "unit": "%"}, {"measurement": "viability, T/C", "setting": "[4]", "result": 103, "unit": "%"}, {"measurement": "viability, T/C", "setting": "[5]", "result": 99.2, "unit": "%"}, {"measurement": "viability, T/C", "setting": "[6]", "result": 80.8, "unit": "%"}, {"measurement": "viability, T/C", "setting": "[7]", "result": 102, "unit": "%"}, {"measurement": "viability, T/C", "setting": "[8]", "result": 91.3, "unit": "%"}, {"measurement": "viability, T/C", "setting": "[9]", "result": 83.1, "unit": "%"}, {"measurement": "viability, T/C", "setting": "[10]", "result": 91.7, "unit": "%"}, {"measurement": "viability, T/C", "setting": "[11]", "result": 90.9, "unit": "%"}, {"measurement": "viability, T/C", "setting": "[12]", "result": 71, "unit": "%"}, {"measurement": "viability, T/C", "setting": "[13]", "result": 71.4, "unit": "%"}, {"measurement": "viability, T/C", "setting": "[14]", "result": 70.1, "unit": "%"}, {"measurement": "viability, T/C", "setting": "[15]", "result": 69.3, "unit": "%"}, {"measurement": "viability, T/C", "setting": "[16]", "result": 62.7, "unit": "%"}, {"measurement": "viability, T/C", "setting": "[17]", "result": 66, "unit": "%"}, {"measurement": "viability, T/C", "setting": "[18]", "result": 49.9, "unit": "%"}, {"measurement": "viability, T/C", "setting": "[19]", "result": 6.36, "unit": "%"}, {"measurement": "viability, T/C", "setting": "[20]", "result": 8.03, "unit": "%"}, {"measurement": "viability, T/C", "setting": "[21]", "result": 5.79, "unit": "%"}, {"measurement": "viability, T/C", "setting": "[22]", "result": 5.93, "unit": "%"}, {"measurement": "viability, T/C", "setting": "[23]", "result": 5.27, "unit": "%"}, {"measurement": "viability, T/C", "setting": "[24]", "result": 4.07, "unit": "%"}, {"measurement": "viability, T/C", "setting": "[25]", "result": 1.36, "unit": "%"}, {"measurement": "viability, T/C", "setting": "[26]", "result": 1.15, "unit": "%"}, {"measurement": "viability, T/C", "setting": "[27]", "result": 1.45, "unit": "%"}, {"measurement": "viability, T/C", "setting": "[28]", "result": 0.91, "unit": "%"}, {"measurement": "viability, T/C", "setting": "[29]", "result": 1.03, "unit": "%"}, {"measurement": "viability, T/C", "setting": "[30]", "result": 2.2, "unit": "%"}, {"measurement": "viability, T/C", "setting": "[31]", "result": 1.62, "unit": "%"}, {"measurement": "viability, T/C", "setting": "[32]", "result": 0.34, "unit": "%"}, {"measurement": "viability, T/C", "setting": "[33]", "result": 0.65, "unit": "%"}, {"measurement": "viability, T/C", "setting": "[34]", "result": 0.65, "unit": "%"}, {"measurement": "viability, T/C", "setting": "[35]", "result": 4.11, "unit": "%"}, {"measurement": "viability, T/C", "setting": "[36]", "result": 0.52, "unit": "%"}]}
